From patent US20250188040A1, “PHARMACEUTICAL COMPOSITIONS COMPRISING WRN HELICASE INHIBITORS” (Vividion Therapeutics, Inc., priority 2022, published 2025) come the findings set out here.

For one assay, the system named is SW480 cells. The experiment in a line: Cell growth assay (CellTiter-Glo 2.0), SW480 MSS cell line. As to conditions: read-out: Cell Growth Inhibition GI50 SW480. (In general: In ATP-based viability assays light output follows the ATP content of the culture.)
In another assay the test system is HCT 116 cells. The assay is described as follows: Cell growth assay (CellTiter-Glo 2.0), HCT 116 MSI-H cell line. The following applies: read-out: Cell Growth Inhibition GI50 HCT-116.
Assay [1] concerns the target hWRN(519-1227)_C-H3CV-GFP-10His (Homo sapiens, UniProt Q14191). The experiment in a line: Helicase Assay for WRN Inhibition (ATP-dependent, fluorescence based).
Setting [2] is: HCT-116 (MSI-H), 5-day incubation.
Where [3] appears, read: WRN Helicase IC50, 30 min preincubation with ATP, 30 min reaction.

A word on the GI50: it is the concentration at which growth is held to half of that of the control. For orientation: IC50 means the concentration that gives 50% inhibition.

Values joined by “and” are separate entries in the source; they are usually repeats but may differ in a detail not shown here. Equal values may be shown once. Read-outs that look alike come from different tables or passages of the source. A value given as a limit tells only on which side of the number the result lay.

Chain of hWRN(519-1227)_C-H3CV-GFP-10His (Q14191 519-1227): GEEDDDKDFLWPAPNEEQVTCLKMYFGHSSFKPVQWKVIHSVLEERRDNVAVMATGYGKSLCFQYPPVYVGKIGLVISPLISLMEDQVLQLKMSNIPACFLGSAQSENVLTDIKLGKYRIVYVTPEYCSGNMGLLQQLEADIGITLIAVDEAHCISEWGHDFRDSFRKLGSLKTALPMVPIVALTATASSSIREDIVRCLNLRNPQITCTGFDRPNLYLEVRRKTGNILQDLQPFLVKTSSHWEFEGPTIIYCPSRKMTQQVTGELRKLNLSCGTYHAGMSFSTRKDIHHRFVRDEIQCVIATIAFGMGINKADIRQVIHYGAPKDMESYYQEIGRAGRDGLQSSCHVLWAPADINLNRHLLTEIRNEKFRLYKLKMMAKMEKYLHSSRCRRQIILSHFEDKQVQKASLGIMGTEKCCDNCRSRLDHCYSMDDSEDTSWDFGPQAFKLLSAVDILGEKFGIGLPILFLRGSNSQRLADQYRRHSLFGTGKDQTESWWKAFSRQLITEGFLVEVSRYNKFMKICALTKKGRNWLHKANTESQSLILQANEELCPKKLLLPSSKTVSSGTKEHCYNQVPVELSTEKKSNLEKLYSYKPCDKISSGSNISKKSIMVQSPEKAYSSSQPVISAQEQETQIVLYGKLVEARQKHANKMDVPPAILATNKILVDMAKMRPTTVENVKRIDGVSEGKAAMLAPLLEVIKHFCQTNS

In the case of `C=C(C#N)[C@@H](NC(=O)c1cnc(C(C)(F)F)nc1Oc1ccccc1)C1CC1` [278/279, (S)—N-(2-cyano-1-cyclopropylallyl)-2-(1,1-difluoroethyl)-4-phenoxypyrimidine-5-carboxamide/(R)—N-(2-cyano-1-cyclopropylallyl)-2-(1,1-difluoroethyl)-4-phenoxypyrimidine-5-carboxamide], the GI50 came out at 11 µM with SW480 cells (SW480 (MSS), 5-day incubation) and 0.35 µM in the assay on HCT 116 cells (setting [2]).

As to `CC(F)(F)c1ncc(C(=O)N[C@H](/C=C/S(C)(=O)=O)CC(F)F)c(Oc2ccccc2)n1` [Example 90, (S,E)-N-(5,5-difluoro-1-(methylsulfonyl)pent-1-en-3-yl)-2-(1,1-difluoroethyl)-4-phenoxypyrimidine-5-carboxamide], the IC50 in assay [1] (setting [3]) amounted to 0.69 µM. Besides, the GI50 with SW480 cells (Homo sapiens, SW480, 120 h) is 19.2 µM; in the assay on HCT 116 cells (Homo sapiens, HCT-116, 120 h), 0.327 µM.

Regarding `C[C@@H](/C=C/S(C)(=O)=O)NC(=O)c1cnc(C2CC2)nc1OC12CCC(CC1)C2` [Example 143, (S,E)-4-(bicyclo[2.2.1]heptan-1-yloxy)-2-cyclopropyl-N-(4-(methylsulfonyl)but-3-en-2-yl)pyrimidine-5-carboxamide], it took 14 µM to reach half-maximal inhibition in assay [1] (setting [3]) (IC50). In addition, the GI50 with SW480 cells (Homo sapiens, SW480, 120 h) is 13 µM; in the assay on HCT 116 cells (Homo sapiens, HCT-116, 120 h) it was 3.4 µM.

As to `CC(F)(F)c1ncc(C(=O)NC(C=CS(C)(=O)=O)C2CC(F)(F)C2)c(Oc2ccccc2)n1` (single isomer, unassigned) [192/193], the GI50 in the assay with SW480 cells (Homo sapiens, SW480, 120 h) stood at 24 µM; in the assay on HCT 116 cells (Homo sapiens, HCT-116, 120 h), 0.023 µM.

Regarding `CC(F)(F)c1ncc(C(=O)N[C@H](/C=C/S(C)(=O)=O)C2CC2)c(O[C@@H]2C[C@@H]3C[C@@H]3C2)n1` [Example 158, 4-(((1R,3r,5S)-bicyclo[3.1.0]hexan-3-yl)oxy)-N—((S,E)-1-cyclopropyl-3-(methylsulfonyl)allyl)-2-(1,1-difluoroethyl)pyrimidine-5-carboxamide], the midpoint of inhibition in assay [1] (setting [3]), the IC50, lay at 1.5 µM. In addition, the GI50 in the assay on SW480 cells (Homo sapiens, SW480, 120 h) was 40 µM; with HCT 116 cells (Homo sapiens, HCT-116, 120 h) it was 0.36 µM.

Turning to `C[C@@H](/C=C/S(C)(=O)=O)NC(=O)c1cnc(C(C)(F)F)nc1Oc1ccccc1` [Example 86, (S,E)-2-(1,1-difluoroethyl)-N-(4-(methylsulfonyl)but-3-en-2-yl)-4-phenoxypyrimidine-5-carboxamide], the GI50 in the assay with SW480 cells (Homo sapiens, SW480, 120 h) was 41.7 µM; in the assay on HCT 116 cells (Homo sapiens, HCT-116, 120 h), 0.224 µM.

In assay [1] (setting [3]), `CN(C)c1ncc(C(=O)N[C@H](/C=C/S(C)(=O)=O)C2CC2)c(Oc2ccccc2)n1` [Example 177, (S,E)-N-(1-cyclopropyl-3-(methylsulfonyl)allyl)-2-(dimethylamino)-4-phenoxypyrimidine-5-carboxamide] yielded an IC50 of 0.37 µM. Further, the GI50 in the assay on SW480 cells (Homo sapiens, SW480, 120 h) was 12 µM; with HCT 116 cells (Homo sapiens, HCT-116, 120 h) it was 0.086 µM.

As for `CC1C(=CC#N)CN1C(=O)c1cnc(C2CC2)nc1Oc1ccccc1` (racemic) [Example 265, 2-(1-(2-cyclopropyl-4-phenoxypyrimidine-5-carbonyl)-2-methylazetidin-3-ylidene)acetonitrile], in assay [1], the IC50 stood at 7.2 µM. In addition, the GI50 is over 10 µM in the assay on SW480 cells (Homo sapiens, SW480, 120 h) and 8.5 µM in the assay with HCT 116 cells (Homo sapiens, HCT-116, 120 h).

As for “2-cyclopropyl-4-(((1R,2R)-2-fluorocyclohexyl)oxy)-N—((S,E)-4-(methylsulfonyl)but-3-en-2-yl)pyrimidine-5-carboxamide; or 2-cyclopropyl-4-(((1S,2S)-2-fluorocyclohexyl)oxy)-N—((S,E)-4-(methylsulfonyl)but-3-en-2-yl)pyrimidine-5-carboxamide [Example 149]”, the IC50 in assay [1] (read-out: WRN Helicase IC50, 30 min preincubation with ATP, 30 min reaction) turned out to be 7.8 µM. Also, the 50% growth inhibitory concentration (GI50) was over 10 µM with SW480 cells (SW480 (MSS), 5-day incubation) and 2.5 µM with HCT 116 cells (setting [2]).

As for `CCN(CC)c1ncc(C(=O)N[C@H](/C=C/S(C)(=O)=O)C2CC2)c(Oc2ccccc2)n1` [Example 179, (S,E)-N-(1-cyclopropyl-3-(methylsulfonyl)allyl)-2-(diethylamino)-4-phenoxypyrimidine-5-carboxamide], in assay [1] (setting [3]), the half-inhibitory concentration (IC50) is 1.04 µM. Moreover, the GI50 in the assay on SW480 cells (Homo sapiens, SW480, 120 h) is 7 µM; in the assay on HCT 116 cells (Homo sapiens, HCT-116, 120 h), 0.198 µM.

For `CSc1ncc(C(=O)NC/C=C/S(C)(=O)=O)c(Oc2ccccc2)n1` [Example 241, (E)-N-(3-(methylsulfonyl)allyl)-2-(methylthio)-4-phenoxypyrimidine-5-carboxamide], in assay [1] (setting [3]), inhibition was half-maximal at 12 µM (IC50). The GI50 was over 10 µM in the assay with SW480 cells (Homo sapiens, SW480, 120 h) and 8.4 µM in the assay with HCT 116 cells (Homo sapiens, HCT-116, 120 h).

`[2H]c1c([2H])c([2H])c(Oc2nc(C(F)(F)C3CC3)ncc2C(=O)N[C@H](/C=C/S(C)(=O)=O)C2CC2)c([2H])c1[2H]` [Example 229, (S,E)-N-(1-cyclopropyl-3-(methylsulfonyl)allyl)-2-(cyclopropyldifluoromethyl)-4-(phenoxy-d5)pyrimidine-5-carboxamide] returned a concentration for half-maximal inhibition (IC50) in assay [1] (setting [3]) of 0.058 µM. In addition, the GI50 was 13 µM in the assay with SW480 cells (Homo sapiens, SW480, 120 h) and 0.013 µM with HCT 116 cells (Homo sapiens, HCT-116, 120 h).

Turning to `[2H]c1c([2H])c([2H])c(Oc2nc(C3CC3)ncc2C(=O)N[C@@H](C)/C=C/S(C)(=O)=O)c([2H])c1[2H]` [Example 140], half-maximal inhibition in assay [1] (setting [3]) (IC50) required 1.9 µM. In addition, the GI50 stood at 32 µM with SW480 cells (Homo sapiens, SW480, 120 h) and 0.33 µM in the assay on HCT 116 cells (Homo sapiens, HCT-116, 120 h).

Consider `C=C(C#N)[C@H](C)NC(=O)c1cnc(C(F)(F)C2CC2)nc1Oc1ccccc1` [275/276, (S)—N-(3-cyanobut-3-en-2-yl)-2-(cyclopropyldifluoromethyl)-4-phenoxypyrimidine-5-carboxamide/(R)—N-(3-cyanobut-3-en-2-yl)-2-(cyclopropyldifluoromethyl)-4-phenoxypyrimidine-5-carboxamide], for which, in the assay with SW480 cells (SW480 (MSS), 5-day incubation), the concentration for 50% growth inhibition (GI50) was 10 µM and 9.4 µM.

`Cc1cc(C(=O)N[C@@H](C)/C=C/S(C)(=O)=O)c(Oc2ccccc2)nc1C1CCCC1` [Example 262, (S,E)-6-cyclopentyl-5-methyl-N-(4-(methylsulfonyl)but-3-en-2-yl)-2-phenoxynicotinamide]: the IC50 in assay [1] (setting [3]) amounted to 6.5 µM. For the same molecule, the GI50 in the assay on SW480 cells (Homo sapiens, SW480, 120 h) was found to be 3 µM; with HCT 116 cells (Homo sapiens, HCT-116, 120 h), 1.7 µM.

In turn, `CS(=O)(=O)C=CC1CN(C(=O)c2cnc(C3CC3)nc2Oc2ccccc2)C1` (racemic) [Example 22, (2-cyclopropyl-4-phenoxypyrimidin-5-yl)(3-(2-(methylsulfonyl)vinyl)azetidin-1-yl)methanone] had an IC50 in assay [1] of 3.5 µM. The GI50 in the assay on SW480 cells (Homo sapiens, SW480, 120 h) was found to be 6.1 µM; with HCT 116 cells (Homo sapiens, HCT-116, 120 h) it was 2.5 µM.

In assay [1] (setting [3]), `CN(c1ncc(C(=O)N[C@H](/C=C/S(C)(=O)=O)C2CC2)c(Oc2ccccc2)n1)C1CC1` [Example 180, (S,E)-2-(cyclopropyl(methyl)amino)-N-(1-cyclopropyl-3-(methylsulfonyl)allyl)-4-phenoxypyrimidine-5-carboxamide] showed an IC50 of 0.439 µM. The concentration for 50% growth inhibition (GI50) with SW480 cells (Homo sapiens, SW480, 120 h) was 3.4 µM; with HCT 116 cells (Homo sapiens, HCT-116, 120 h), 0.0582 µM.

`CS(=O)(=O)/C=C/CNC(=O)c1cnc(C2CCCC2)nc1Oc1ccc(Cl)cc1` [Example 120, (E)-4-(4-chlorophenoxy)-2-cyclopentyl-N-(3-(methylsulfonyl)allyl)pyrimidine-5-carboxamide] showed an IC50 in assay [1] (setting [3]) of 4.9 µM. Moreover, the GI50 in the assay with SW480 cells (Homo sapiens, SW480, 120 h) is 4.8 µM; with HCT 116 cells (Homo sapiens, HCT-116, 120 h) it was 4.3 µM.

In the case of `C=C(C#N)[C@H](C)NC(=O)c1cnc(C(C)(F)F)nc1Oc1ccccc1` [Example 273/274, (S)—N-(3-cyanobut-3-en-2-yl)-2-(1,1-difluoroethyl)-4-phenoxypyrimidine-5-carboxamide/(R)—N-(3-cyanobut-3-en-2-yl)-2-(1,1-difluoroethyl)-4-phenoxypyrimidine-5-carboxamide], the GI50 stood at 16 µM in the assay with SW480 cells (SW480 (MSS), 5-day incubation) and 0.122 µM with HCT 116 cells (setting [2]).
